Measured values: publication PMC9781827, “Isolation and Identification of Anti-Inflammatory Peptide from Goose Blood Hydrolysate to Ameliorate LPS-Mediated Inflammation and Oxidative Stress in RAW264.7 Macrophages” (Molecules, 2022)

Columns and labels:
Type in all cases: cell-based
[1] = tested on: IL-1β; assay: IL-1β level by ELISA in culture medium, model of LPS-mediated RAW264.7 macrophage inflammation; conditions: LPS group: LPS (1.0 μg/mL) alone, 24 h; mean ± S.D., n = 3
Description: The anti-inflammatory activity of the peptides was determined according to the methods of a previous study. The anti-inflammatory activity of different fractions was evaluated by measuring the levels of the inflammatory cytokines (TNF-α, IL-1β and IL-6) in a model of LPS-induced macrophage inflammation with ELISA kits (Jiangsu Enzyme marker Biotechnology Co., Ltd., Yancheng, China). […] A 20 mmol/L Tris-HCl (pH 8.0) solution was used as the start buffer and 20 mmol/L Tris-HCl/1 mol/L NaCl (pH 8.0) was used as elution buffer. Elution program: (1) wash with 5 column volumes of starting buffer; (2) elute with 10 column volumes of 50% elution buffer and 50% start buffer; (3) elute with 5 column volumes of 100% elution buffer. The above flow rates were 5 mL/min. The fractions were detected at 280 nm by an ultraviolet detector and collected by an automatic fraction collector.
The method of RAW264.7 macrophage culture and treatments were based on the study of Li et al.. […] Macrophages from passages 5 to 10 were selected to seed on 96-well culture plates at a density of 4 × 10^5 cells/well and cultured with different concentrations of LPS (0.5 μg/mL, 1.0 μg/mL and 2.0 μg/mL) for 24 h. The optimal concentration of LPS for inducing inflammation in the RAW264.7 macrophage was ensured according to cell viability. […] The ability of GBP to protect RAW264.7 macrophages was evaluated. […]

[2] = tested on: SOD; assay: SOD activity in LPS-mediated RAW264.7 macrophages; conditions: LPS alone; mean ± S.D., n = 3
Description: (§1) The culture medium was collected and centrifuged at 3000× g for 10 min. Then, the inflammatory cytokines levels of TNF-α (MB-50051A), IL-1β (MB-50064B) and IL-6 (MB-50054A) in the culture medium were determined with ELISA kits (Jiangsu Enzyme marker Biotechnology Co., Ltd., Yancheng, China). […] (7) Add 50 μL of stop solution to each well, and measure its absorbance value at 450 nm wavelength. The activities of SOD, GSH-Px and the levels of ROS and Nitric oxide (NO) in macrophages were determined with spectrophotometric kits. […] The absorbance value of miscible liquid was measured at 450 nm wavelength by a multifunctional microplate reader; GSH-Px: 0.2 mL of sample was mixed with 0.2 mL GSH-Px (1 mmol/L) and performed at 37 °C for 5 min. […] The absorbance value was measured at 412 nm wavelength by a multifunctional microplate reader; ROS: DCFH-DA probe was added directly to serum-free medium: DCFH-DA was generally diluted with serum-free medium at a final concentration of 10 µM at 1:1000. […] In general, obvious green fluorescence can be observed in positive control cells after 20 min of stimulation. […] It can also be detected according to FITC fluorescence detection conditions. The results were expressed as fluorescence values.

[3] = tested on: GSH-Px; assay: GSH-Px activity in LPS-mediated RAW264.7 macrophages; conditions: LPS alone; mean ± S.D., n = 3
Description: as §1

Q: What does the source list for lipopolysaccharide [LPS]?
A: level of IL-1β [1]: 485.75 ± 50.29 pg/mL; level of SOD [2]: 24.43 ± 1.41 U/mg prot; level of GSH-Px [3]: 44.63 ± 2.72 U/mg prot
